Experimental data from paper PMC11079024, “Identification of a family of species-selective complex I inhibitors as potential anthelmintics” (Nature Communications, 2024).
Several values for one entry are separate records, joined by “and”; a condition that tells them apart may be missing. Equal values may be shown once. Read-outs that look alike come from different tables or passages of the source.

Key:
[1] = target: C. elegans (N2) complex I (NADH:ubiquinone oxidoreductase) (Caenorhabditis elegans, UniProt P24887+Q93873+Q94360); test: biochemical; assay type: biochemical; conditions: for percent (%) in vitro complex I activity relative to solvent control: mitochondria
Method: Mitochondria were isolated from the following free-living nematode strains: C. elegans—N2, CB3474, ECA882, ECA917, ECA1075, ECA1080; C. briggsae—AF16; P. pacificus—PS312; and P. hermaphrodita—B178. With the exception of the P. hermaphrodita strain B178, adult worms of each strain were grown in bulk through liquid culture to obtain mitochondria in sufficient quantities. Due to poor growth in liquid media, mixed stage populations of P. hermaphrodita were washed off and collected from NGM plates seeded with OP50. The isolation of mitochondria from all free-living nematode strains followed the protocol previously outlined in Burns et al.[24]. In brief, a 1 L saturated culture of E. coli HB101 was concentrated 20-fold in 50 mL complete S-medium. ~500,000 L1 worms synchronized from an embryo preparation performed the day prior were added to the S-media/HB101 suspension and grown to adulthood over the course of 3.5 days at 20 °C with shaking at 165 rpm. Following growth, worms were collected in 10 ×15 mL conical tubes and washed 7 times in M9 buffer. Worm suspensions were then combined into a single 15 mL conical tube and diluted to a final volume of 15 mL with M9 buffer. 1 mL aliquots of worm suspension were then distributed to 15 × 1.5 mL screw-cap microcentrifuge tubes and were pelleted at 500 g for 1 min. Excess M9 was aspirated without disturbing the worm pellet. 600 μL ice-cold isolate buffer A (250 mM sucrose, 10 mM Tris (pH 7.5), 1 mM EDTA, 1 mM PMSF (freshly prepared)) and 300 μL cold glass beads were then added to each tube. Tubes were incubated on ice for 10 min, and the worms were then lysed by bead beating (6 x 30 s, with 1 min cooling intervals). Tubes containing worm lysate were centrifuged at 1,000 g for 10 min at 4 °C and the supernatant was transferred to 15 new microcentrifuge tubes on ice. The tubes were centrifuged a second time at 1,000 g for 10 min at 4 °C and the supernatant was once again transferred to 15 new microcentrifuge tubes on ice. These tubes were then centrifuged at 16,000 g for 10 min at 4 °C. The resulting mitochondrial pellet was washed twice by re-suspension in 300 μL of ice-cold isolate buffer B (250 mM sucrose, 10 mM Tris (pH 7.5), 1 mM EDTA). Following the final wash, isolation buffer was aspirated from each tube and the pellets were flash-frozen in ethanol/dry ice and stored at −80 °C until needed.
(§1) The enzymatic activities of individual ETC complexes (I-IV) were assessed spectrophotometrically in isolated mitochondria using a Varioskan LUX Multimode plate reader (ThermoFisher Scientific). Mitochondrial pellets previously isolated were thawed on ice and resuspended in ice-cold isolation buffer (250 mM sucrose, 10 mM Tris (pH 7.5), 1 mM EDTA). The BCA assay (Walker, 1994) was used to quantify the protein concentration of mitochondria suspensions; solutions were diluted to a concentration of 0.2 mg/mL for use in all assays. For the complex I assay, mitochondria pellets were freeze-thawed on ice three times to increase enzyme accessibility. […] 20 μL mitochondria suspension was then added/mixed with a pipette to initiate the reaction. Immediately following the addition of mitochondria, absorbance was measured (complex I and II: 600 nm; complex III and IV: 550 nm) in 30 s intervals over 15 min. Enzymatic activity was determined in each reaction by plotting absorbance versus time and calculating the slope of the curve during the initial linear phase of the reaction. […] Percent activity of each complex was calculated by dividing the enzyme-specific activity of each well by the enzyme-specific activity of the corresponding solvent controls.
(§2) Chemical solutions were prepared in complex I assay buffer composed of 25 mM KPi buffer (pH 7.5), 3 mg/mL bovine serum albumin (BSA), 80 μM NADH, 60 μM decylubiquinone, 160 μM DCIP, 2 μM antimycin A and 2 mM KCN.
For preliminary screens of hit compounds, compounds were screened at 100 μM; data are the average of at least three biological replicates.

[2] = tested on: L1 wild-type C. elegans; conditions: for Screen "Hit" / Relative Motility: 50 μM; for Relative Motility: relative to DMSO controls, single biological replicate
[3] = target: B. taurus (heart) complex I (Bos taurus, UniProt P03887+P17694+P42026); test: biochemical; assay type: biochemical; conditions: heart mitochondria; read-out: B. taurus Complex I IC50
Method: Six 8–10-week-old C57Bl/6 female mice (Charles River) were freshly dissected, and their livers and hearts collected into separate 1.5 mL microcentrifuge tubes. Organs were flash-frozen in liquid nitrogen and stored at −80 °C prior to use. The heart of a freshly slaughtered adult cow was obtained from a local abattoir (Peel Sausage Inc.), chopped into ~1-inch cubes and collected into 50 mL falcon tubes. Falcon tubes were flash-frozen in a container of dry ice and stored at −80 °C prior to use. Isolation of mitochondria from all mammalian tissue was carried out following the protocol described above. However, due to size, the initial homogenization of tissue was performed by 15 strokes in a dounce homogenizer (mouse heart) or with several 5 s pulses in small Nutribullet blender (cow heart). All mouse protocols for mouse care and dissection were reviewed and approved by the University of Toronto Animal Care Committee, in accordance with the Canadian Council on Animal Care.
as §1, §2
For preliminary screens of hit compounds, compounds were screened at 100 μM; data are the average of at least three biological replicates. The complex I and II activity assays were used for additional dose-response experiments. […] For dose responses of benzimidazole analogs, data represent the average of two biological replicates. For all other dose-responses, data represent the average of at least three biological replicates.

[4] = read-out: percent (%) in vitro complex I activity relative to solvent control
[5] = active (hit) or inactive (non) at 50 μM in C. elegans assay of RQ-dependent metabolism
[6] = KCN survival assay, hit = relative motility below 0.25
[7] = worm motility 3 hours after the removal of KCN (endpoint)
[8] = hit = relative motility below 0.25 3 hours after the removal of KCN
[9] = hit = relative motility below 0.25 3 hours after removal of KCN
[10] = worm motility 3 hours after removal of KCN
[11] = active or inactive at 50 μM in C. elegans assay of RQ-dependent metabolism

Chain of C. elegans (N2) complex I (NADH:ubiquinone oxidoreductase) (Q94360 17-199): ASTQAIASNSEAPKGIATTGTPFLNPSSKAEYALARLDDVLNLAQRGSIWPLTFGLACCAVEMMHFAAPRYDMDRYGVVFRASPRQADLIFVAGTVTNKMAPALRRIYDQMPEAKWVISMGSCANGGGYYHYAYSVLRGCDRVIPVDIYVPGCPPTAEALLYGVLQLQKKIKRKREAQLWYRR
Chain of C. elegans (N2) complex I (NADH:ubiquinone oxidoreductase) (P24887 whole entry): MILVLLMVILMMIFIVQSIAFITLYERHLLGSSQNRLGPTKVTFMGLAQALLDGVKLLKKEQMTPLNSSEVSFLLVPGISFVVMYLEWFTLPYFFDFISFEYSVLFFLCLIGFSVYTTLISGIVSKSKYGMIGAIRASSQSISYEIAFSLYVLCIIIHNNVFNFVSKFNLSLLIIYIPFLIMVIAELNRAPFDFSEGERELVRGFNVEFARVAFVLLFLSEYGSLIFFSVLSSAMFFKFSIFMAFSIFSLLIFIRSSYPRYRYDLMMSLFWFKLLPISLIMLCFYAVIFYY
Chain of C. elegans (N2) complex I (NADH:ubiquinone oxidoreductase) (Q93873 31-482): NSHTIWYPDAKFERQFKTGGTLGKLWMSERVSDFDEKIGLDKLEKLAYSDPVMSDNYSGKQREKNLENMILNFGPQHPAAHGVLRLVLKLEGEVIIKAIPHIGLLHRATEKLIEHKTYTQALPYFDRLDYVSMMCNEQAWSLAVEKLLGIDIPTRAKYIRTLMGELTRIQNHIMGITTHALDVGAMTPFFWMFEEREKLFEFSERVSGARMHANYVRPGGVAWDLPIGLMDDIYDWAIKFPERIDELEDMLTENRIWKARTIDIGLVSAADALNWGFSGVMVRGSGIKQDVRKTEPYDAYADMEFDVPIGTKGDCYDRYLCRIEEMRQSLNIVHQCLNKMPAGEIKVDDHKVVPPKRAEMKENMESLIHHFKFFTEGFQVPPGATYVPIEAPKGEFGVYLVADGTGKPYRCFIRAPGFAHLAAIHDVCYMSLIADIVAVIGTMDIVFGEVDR
Chain of B. taurus (heart) complex I (P03887 whole entry): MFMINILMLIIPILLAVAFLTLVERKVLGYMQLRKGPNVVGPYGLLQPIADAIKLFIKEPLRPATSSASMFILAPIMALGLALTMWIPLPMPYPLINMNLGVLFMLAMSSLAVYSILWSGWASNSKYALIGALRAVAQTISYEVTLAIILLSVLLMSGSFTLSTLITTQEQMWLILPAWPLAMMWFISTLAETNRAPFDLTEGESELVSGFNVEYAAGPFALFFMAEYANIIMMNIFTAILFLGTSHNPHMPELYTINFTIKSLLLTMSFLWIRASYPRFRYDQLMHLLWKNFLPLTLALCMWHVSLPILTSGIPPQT
Chain of B. taurus (heart) complex I (P17694 34-463): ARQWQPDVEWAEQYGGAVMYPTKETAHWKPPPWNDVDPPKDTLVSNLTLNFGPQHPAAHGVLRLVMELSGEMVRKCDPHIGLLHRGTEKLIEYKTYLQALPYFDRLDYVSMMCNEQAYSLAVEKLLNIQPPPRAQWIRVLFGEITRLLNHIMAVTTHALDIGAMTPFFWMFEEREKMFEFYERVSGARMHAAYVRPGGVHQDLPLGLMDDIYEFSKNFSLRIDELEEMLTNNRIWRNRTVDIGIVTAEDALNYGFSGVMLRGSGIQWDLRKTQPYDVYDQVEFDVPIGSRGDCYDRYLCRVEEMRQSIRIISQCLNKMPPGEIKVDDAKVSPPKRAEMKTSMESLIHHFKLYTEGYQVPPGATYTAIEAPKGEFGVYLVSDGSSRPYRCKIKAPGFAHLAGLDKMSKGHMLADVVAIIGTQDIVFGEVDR
Chain of B. taurus (heart) complex I (P42026 38-216): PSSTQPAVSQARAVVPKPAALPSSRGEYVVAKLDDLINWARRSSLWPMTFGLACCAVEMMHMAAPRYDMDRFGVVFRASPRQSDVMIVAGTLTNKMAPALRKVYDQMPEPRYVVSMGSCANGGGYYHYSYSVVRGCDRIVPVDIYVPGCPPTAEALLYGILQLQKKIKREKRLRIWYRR

Compound	Screen "Hit" [2, 6]	Relative Motility [2, 7]	Screen "Hit" [2, 9]	Relative Motility [2, 10]	other results
CCCSc1ccc2nc(NC(=O)OC)[nH]c2c1 [Albendazole]					percent (%) in vitro complex I activity relative to solvent control ([1]; 0.125 µM): 118.853% and 109.086% and 106.962%; percent (%) in vitro complex I activity relative to solvent control ([1]; 0.313 µM): 114.037% and 108.086% and 98.922%; percent (%) in vitro complex I activity relative to solvent control ([1]; 0.625 µM): 95.184% and 91.388% and 110.521%; percent (%) in vitro complex I activity relative to solvent control ([1]; 1.5 µM): 96.241% and 104.509% and 111.883%; percent (%) in vitro complex I activity relative to solvent control ([1]; 3 µM): 99.535% and 109.848% and 112.347%; percent (%) in vitro complex I activity relative to solvent control ([1]; 15 µM): 97.910% and 114.555% and 112.953%; percent (%) in vitro complex I activity relative to solvent control ([1]; 37.5 µM): 89.237% and 107.533% and 106.445%; percent (%) in vitro complex I activity relative to solvent control ([1]; 75 µM): 100.906% and 79.462% and 105.930% and 106.268%; remaining activity at 0.125 µM [1, 4]: 103%; remaining activity at 0.313 µM [1, 4]: 104%; remaining activity at 0.625 µM [1, 4]: 102%; remaining activity at 1.5 µM [1, 4]: 109%; remaining activity at 3 µM [1, 4]: 106%; remaining activity at 15 µM [1, 4]: 106%; remaining activity at 37.5 µM [1, 4]: 105%; remaining activity at […] [1, 4]: 108%
FC(OC(F)(F)F)c1nc2ccc(Cl)cc2[nH]1 (stereo not shown) [Compound 5119407]					Hit [2, 5]: non
Cc1nc2cc(Cl)ccc2n1-c1ccccc1 [Compound 5119819]	Y (hits were identified as compounds that reduced relative motility below 0.25 (75% reduction))	0.230			
CCn1c(C)nc2cc(-c3ccccc3)ccc21 [Compound 5160815]		0.085			Screen "Hit" [2, 8]: Y (hits were identified as compounds that reduced relative motility below 0.25 (75% reduction))
Cc1ccc2[nH]c(-c3ccccc3N)nc2c1 [Compound 5534607]					Hit [2, 5]: non
CC(C)(C)c1ccc(Cn2c(N)nc3ccccc32)cc1 [Compound 5564334]	Y (hits were identified as compounds that reduced relative motility below 0.25 (75% reduction))	0.130			
COc1ccc(CSc2nc3ccccc3[nH]2)cc1 [Compound 5568705]			Y (hits were identified as compounds that reduced relative motility below 0.25 (75% reduction))	0.100	
Fc1cccc(F)c1CSc1nc2ccccc2[nH]1 [Compound 5616951]			Y (hits were identified as compounds that reduced relative motility below 0.25 (75% reduction))	0.130	
COc1ccc2c(c1)nc(SCc1ccccc1)n2C [Compound 5649512]			Y (hits were identified as compounds that reduced relative motility below 0.25 (75% reduction))	0.190	
Cc1ccccc1Cn1cnc2ccccc21 [Compound 5656207]					Hit [2, 11]: non
Cn1c(/C=C/c2ccc(Cl)cc2)nc2ccccc21 [Compound 5663561]	Y (hits were identified as compounds that reduced relative motility below 0.25 (75% reduction))	0.220			
CCN(CC)CCSc1nc2ccccc2n1Cc1ccccc1 [Compound 5685018]	Y (hits were identified as compounds that reduced relative motility below 0.25 (75% reduction))	0.220			
Nc1ccc(Oc2ccc(-c3nc4ccccc4[nH]3)cc2)cc1 [Compound 5747231]			Y (hits were identified as compounds that reduced relative motility below 0.25 (75% reduction))	0.130	
CC(C)CCSc1nc2ccccc2[nH]1 [Compound 5867913]		0.150			Screen "Hit" [2, 8]: Y (hits were identified as compounds that reduced relative motility below 0.25 (75% reduction))
COC(=O)c1ccc(OCC(O)Cn2c(C)nc3ccccc32)cc1 (stereo not shown) [Compound 5929389]					Hit [2, 11]: non
CCn1c(/C=C/c2ccccc2)nc2ccccc21 [Compound 5958035]	Y (hits were identified as compounds that reduced relative motility below 0.25 (75% reduction))	0.160			
CCCc1nc2ccccc2n1Cc1ccc(C)cc1 [Compound 6607958]	Y (hits were identified as compounds that reduced relative motility below 0.25 (75% reduction))	0.120			
N#Cc1ccc(CSc2nc3ccc(Br)cc3[nH]2)cc1 [Compound 6726033]			Y (hits were identified as compounds that reduced relative motility below 0.25 (75% reduction))	0.140	
C=CCn1c(/C=C/c2ccccc2OC)nc2ccccc21 [Compound 7121977]	Y (hits were identified as compounds that reduced relative motility below 0.25 (75% reduction))	0.140			
CCCOc1ccc(Cn2c(CO)nc3ccccc32)cc1 [Compound 7356999]					Hit [2, 11]: non
C=CCn1c(NCc2ccccc2OC)nc2ccccc21 [Compound 7419109]			Y (hits were identified as compounds that reduced relative motility below 0.25 (75% reduction))	0.078	
CCn1c(NCc2cccc(Br)c2)nc2ccccc21 [Compound 7746308]			Y (hits were identified as compounds that reduced relative motility below 0.25 (75% reduction))	0.200	
Cc1nn(C)c(Oc2ccccc2)c1C=NOCc1ccc(C(=O)OC(C)(C)C)cc1 [Fenpyroximate, reference compound]					IC50 ([1]; wild-type (N2) mitochondria, read-out: C. elegans Complex I IC50): 21 nM; IC50 [3]: 48 nM
